Measured values taken from the supplement of paper PMC10331698.
± gives the standard deviation of the averaged measurements.

Columns and labels:
Assay in all cases: level (log10 ratio to DMSO vehicle control); higher = higher biomarker level / cell amount than vehicle control
Conditions in all cases: in DMSO
[1] = compound: NS(=O)(=O)C(F)(F)C(F)(F)C(F)(F)C(F)(F)C(F)(F)C(F)(F)F [Perfluorohexanesulfonamide]
Protocol: (§1)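 BioMAP Diversity Plus panel of 12 human primary cell co-culture systems (3C, 4H, LPS, SAg, BT, BF4T, BE3C, CASM3C, HDF3CGF, KF3CT, MyoF, Mphg). Compounds were added 1 h before stimulation and left for 24 h (MyoF 48 h; BT 72 h for soluble read-outs or 6 d for IgG). Biomarkers were read by ELISA, cytotoxicity by SRB, PBMC viability and proliferation by Alamar Blue. Each well value was divided by the mean of 8 DMSO control wells on the same plate and log10 transformed; duplicate blinded samples were tested at 4 concentrations.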

[2] = compound: NC(=O)C(F)(F)C(F)(F)C(F)(F)C(F)F
Protocol: as §1

[3] = compound: O=S(=O)(O)C(F)(F)C(F)(F)C(F)(F)C(F)(F)C(F)(F)C(F)(F)C(F)(F)C(F)(F)C(F)(F)C(F)(F)F [Sodium perfluorodecanesulfonate]
Protocol: as §1

[4] = compound: O=S(=O)(F)C(F)(F)C(F)(F)C(F)(F)C(F)(F)C(F)(F)C(F)(F)C(F)(F)C(F)(F)F [Perfluorooctanesulfonyl fluoride]
Protocol: as §1

[5] = compound: FC(F)(F)C(F)(F)CNCC(F)(F)C(F)(F)F [Bis(1H,1H-perfluoropropyl)amine]
Protocol: as §1

Test System	level (log10) ([1]; 6700 nM)	level (log10) ([1]; 20000 nM)	level (log10) ([1]; 60000 nM)	level (log10) ([2]; 6700 nM)	level (log10) ([2]; 20000 nM)	level (log10) ([2]; 60000 nM)	level (log10) ([3]; 1500 nM)	level (log10) ([3]; 4400 nM)	level (log10) ([3]; 13000 nM)	level (log10) ([3]; 40000 nM)	level (log10) ([4]; 6700 nM)	level (log10) ([4]; 20000 nM)	level (log10) ([4]; 60000 nM)	level (log10) ([5]; 6700 nM)	level (log10) ([5]; 20000 nM)	level (log10) ([5]; 60000 nM)
BF4T:MMP-9	0.0205 ± 0.021	0.011 ± 0.0085	-0.003 ± 0.0085	0.013 ± 0.051	-0.006 ± 0.055	-0.001 ± 0.047	0.0255 ± 0.0078	-0.007 ± 0.045	-0.0285 ± 0.015	-0.058 ± 0.021	0.007 ± 0.02	-0.007 ± 0.0099	0.015 ± 0.0028	-0.013 ± 0.0057	-0.013 ± 0.0042	0.0085 ± 0.036
BF4T:PAI-I	0.002 ± 0.0099	0.003 ± 0.0057	-0.0115 ± 0.005	-0.0005 ± 0.019	-0.0095 ± 0.021	0.004 ± 0.0085	-0.0015 ± 0.0092	0.0175 ± 0.005	0.0125 ± 0.0035	0.021 ± 0.0071	0.004 ± 0.0014	-0.0005 ± 0.0035	0.02 ± 0.0085	-0.008 ± 0.0014	-0.005	0.006 ± 0.016
BF4T:SRB	-0.005 ± 0.0042	-0.012 ± 0.0042	-0.0345 ± 0.005	-0.0075 ± 0.00071	-0.0125 ± 0.011	-0.0025 ± 0.0078	0.004 ± 0.0071	-0.0055 ± 0.005	0 ± 0.0057	0.006 ± 0.016	-0.0025 ± 0.0035	-0.002 ± 0.0042	0.0145 ± 0.025	-0.004 ± 0.0071	-0.0065 ± 0.0064	0.0005 ± 0.0078
BF4T:tPA	0.004 ± 0.0028	-0.012 ± 0.0085	-0.075 ± 0.016	-0.0005 ± 0.021	-0.0115 ± 0.022	0.0125 ± 0.005	0.01 ± 0.0071	0.0175 ± 0.059	0.075 ± 0.018	0.068 ± 0.016	-0.003 ± 0.027	-0.0155 ± 0.016	-0.008 ± 0.0099	-0.062 ± 0.035	-0.054 ± 0.023	-0.0335 ± 0.0035
BF4T:uPA	-0.003 ± 0.0042	0.0005 ± 0.0035	-0.01 ± 0.011	-0.001 ± 0.023	-0.0145 ± 0.015	-0.004 ± 0.021	0.0165 ± 0.0035	0.013 ± 0.017	0.0415 ± 0.005	0.06 ± 0.027	0.007 ± 0.0028	0 ± 0.011	0.0095 ± 0.0092	-0.025 ± 0.011	-0.0205 ± 0.013	-0.0165 ± 0.0092
BT:PBMC Cytotoxicity	0.0405 ± 0.011	0.047 ± 0.027	0.0775 ± 0.011	-0.001 ± 0.0042	-0.0015 ± 0.0035	0.016	-0.025 ± 0.023	-0.005 ± 0.0042	-0.0035 ± 0.026	0.007 ± 0.035	-0.001 ± 0.016	-0.01 ± 0.041	-0.005 ± 0.0071	0.007 ± 0.013	0.005 ± 0.024	0.0125 ± 0.013
BT:Secreted IgG	-0.024 ± 0.016	-0.0005 ± 0.046	-0.133 ± 0.037	0.0115 ± 0.073	0.026 ± 0.0085	-0.0005 ± 0.026	-0.026 ± 0.038	-0.0155 ± 0.022	-0.0275 ± 0.046	-0.028 ± 0.028	0.0025 ± 0.026	0.0185 ± 0.0035	0.004 ± 0.03	0.0095 ± 0.0021	0.001 ± 0.023	0.0185 ± 0.00071
BT:sIL-2	-0.018 ± 0.11	-0.0415 ± 0.015	0.0705 ± 0.00071	0.002 ± 0.058	-0.056 ± 0.051	0.04 ± 0.0099	0.0125 ± 0.09	0.014 ± 0.051	0.0265 ± 0.1	0.12 ± 0.064	-0.038 ± 0.058	-0.001 ± 0.042	0 ± 0.1	-0.011 ± 0.064	0.012 ± 0.064	0.0645 ± 0.1
